Measured values as given in ChEMBL document CHEMBL4396974, “Synthesis and evaluation of a novel quinoline-triazole analogs for antitubercular properties via molecular hybridization approach” (Bioorg Med Chem Lett, 2019).

Assays:
Conditions in all cases: read-out: INH
[1] = Cytotoxicity against human HEK293 cells at 10 uM measured after 48 hrs by sulforhodamine B assay relative to control; assay type: cell-based
[2] = Cytotoxicity against human HeLa cells at 10 uM measured after 48 hrs by sulforhodamine B assay relative to control; assay type: cell-based
[3] = Cytotoxicity against human PC3 cells at 10 uM measured after 48 hrs by sulforhodamine B assay relative to control; assay type: cell-based, PC-3
[4] = Cytotoxicity against human PANC1 cells at 10 uM measured after 48 hrs by sulforhodamine B assay relative to control; assay type: cell-based, PANC-1
[5] = Cytotoxicity against human SKOV3 cells at 10 uM measured after 48 hrs by sulforhodamine B assay relative to control; assay type: cell-based, SK-OV-3
[6] = Cytotoxicity against human HEK293 cells at 2 uM measured after 48 hrs by sulforhodamine B assay relative to control; assay type: cell-based
[7] = Cytotoxicity against human HeLa cells at 2 uM measured after 48 hrs by sulforhodamine B assay relative to control; assay type: cell-based
[8] = Cytotoxicity against human PC3 cells at 2 uM measured after 48 hrs by sulforhodamine B assay relative to control; assay type: cell-based, PC-3
[9] = Cytotoxicity against human PANC1 cells at 2 uM measured after 48 hrs by sulforhodamine B assay relative to control; assay type: cell-based, PANC-1
[10] = Cytotoxicity against human SKOV3 cells at 2 uM measured after 48 hrs by sulforhodamine B assay relative to control; assay type: cell-based, SK-OV-3

SMILES | cytotoxicity at 48 h, 10 µM [1] | cytotoxicity at 48 h, 10 µM [2] | cytotoxicity at 48 h, 10 µM [3] | cytotoxicity at 48 h, 10 µM [4] | cytotoxicity at 48 h, 10 µM [5] | cytotoxicity at 48 h, 2 µM [6] | cytotoxicity at 48 h, 2 µM [7] | cytotoxicity at 48 h, 2 µM [8] | cytotoxicity at 48 h, 2 µM [9] | cytotoxicity at 48 h, 2 µM [10]
COc1nc2ccc(Br)cc2cc1C(c1ccccc1)n1cc(-c2ccccc2C(F)(F)F)nn1 (stereo not given) | 14.3% | -1.3% | 17.4% | 11.4% | 9.55% |  |  |  |  | 
CCCCCCc1cn(C(c2ccccc2)c2cc3cc(Br)ccc3nc2OC)nn1 (stereo not given) | -3.17% | -0.97% | 2.32% | 6.08% | 7.17% |  |  |  |  | 
COc1cccc2c1C(=O)c1c(O)c3c(c(O)c1C2=O)C[C@@](O)(C(=O)CO)C[C@@H]3O[C@H]1C[C@H](N)[C@H](O)[C@H](C)O1 [DOXORUBICIN] |  |  |  |  |  | 75.6% | 74.1% | 86.7% | 96.1% | 83.3%
CCCCc1cn(C(c2ccccc2)c2cc3cc(Br)ccc3nc2OC)nn1 (stereo not given) | -3.47% | -2.87% | 5.54% | 5.46% | 11.1% |  |  |  |  | 
COc1nc2ccc(Br)cc2cc1C(c1ccccc1)n1cc(-c2ccccc2F)nn1 (stereo not given) | 3.97% | 14.1% | 13.4% | 14.7% | 7.33% |  |  |  |  | 
CCCCCCCc1cn(C(c2ccccc2)c2cc3cc(Br)ccc3nc2OC)nn1 (stereo not given) | 0.17% | 9.7% | 4.42% | 16.6% | 10.5% |  |  |  |  | 
CCCCCCCCc1cn(C(c2ccccc2)c2cc3cc(Br)ccc3nc2OC)nn1 (stereo not given) | 14.6% | 0.1% | 2.27% | 12.1% | 2.06% |  |  |  |  | 
COc1nc2ccc(Br)cc2cc1C(c1ccccc1)n1cc(-c2ccc(F)cc2)nn1 (stereo not given) | 4.04% | 4.27% | 16.4% | 14.9% | 14.3% |  |  |  |  | 
CCOC(=O)c1cn(C(c2ccccc2)c2cc3cc(Br)ccc3nc2OC)nn1 (stereo not given) | 2% | -3.67% | 16.1% | 15.4% | 2.01% |  |  |  |  | 
COc1nc2ccc(Br)cc2cc1C(c1ccccc1)n1cc(CCCCCO)nn1 (stereo not given) | 7.96% | 1.08% | 12.9% | 19.6% | 8.69% |  |  |  |  | 
COc1nc2ccc(Br)cc2cc1C(c1ccccc1)n1cc(CO)nn1 (stereo not given) | 11.5% | 0.25% | 4.65% | 15% | 3.23% |  |  |  |  | 
COc1nc2ccc(Br)cc2cc1C(c1ccccc1)n1cc(-c2cccc(F)c2)nn1 (stereo not given) | 6.84% | 9.04% | 14.6% | 15.5% | 12.7% |  |  |  |  | 
COc1nc2ccc(Br)cc2cc1C(c1ccccc1)n1cc(CCCO)nn1 (stereo not given) | 27.4% | 11.3% | 14.7% | 25.5% | 13.8% |  |  |  |  | 
CCCCCc1cn(C(c2ccccc2)c2cc3cc(Br)ccc3nc2OC)nn1 (stereo not given) | -2% | -9.81% | 11.4% | 5.07% | 10.5% |  |  |  |  | 
CCCc1cn(C(c2ccccc2)c2cc3cc(Br)ccc3nc2OC)nn1 (stereo not given) | 0.85% | -2.25% | 8.3% | 11.3% | 11.2% |  |  |  |  | 
COc1nc2ccc(Br)cc2cc1C(c1ccccc1)n1cc(C2CC2)nn1 (stereo not given) | 8.22% | -5.84% | 22.6% | 21.8% | 3.52% |  |  |  |  | 
COc1nc2ccc(Br)cc2cc1C(c1ccccc1)n1cc(-c2ccc(Br)cc2)nn1 (stereo not given) | 6.28% | 6.92% | 7.43% | 10.4% | 13.4% |  |  |  |  | 
COc1nc2ccc(Br)cc2cc1C(c1ccccc1)n1cc(-c2ccc(OC(F)(F)F)cc2)nn1 (stereo not given) | 5.8% | -2.24% | 21.6% | 11.7% | 14.8% |  |  |  |  | 
COc1nc2ccc(Br)cc2cc1C(c1ccccc1)n1cc(CCO)nn1 (stereo not given) | 4.54% | 0.85% | 15.5% | 19.8% | 8.46% |  |  |  |  | 
COc1nc2ccc(Br)cc2cc1C(c1ccccc1)n1cc(-c2ccccc2)nn1 (stereo not given) | 8.25% | 13.9% | 5.97% | 30.1% | 13.7% |  |  |  |  | 
